These results are taken from patent US8753680B2, “Capsule for the prevention of cardiovascular diseases” (Ferrer Internacional S.A., priority 2008, dated 2014).

The conditions of data set [1]: general statement, no test described; cited from earlier work.
The nature of data set [2]: Degradation of acetylsalicylic acid by moisture. In kind it is physicochemical. The settings on record: found in the course of the investigation. From the text: Subsequent acetylsalicylic acid sublimation occurs on the surface of ACE inhibitor tablets thus inducing its chemical degradation. A partially hydrolysed polyvinyl alcohol coating film (Opadry AMB™, Colorcon) has been found useful for protecting both acetylsalicylic acid and the ACE inhibitor tablets because of its moisture barrier properties. HMG-CoA reductase inhibitor tablets in the present invention may be coated with a coloured film, such as a hydroxypropylmethyl cellulose comprising film (Opadry Orange™, Colorcon) to hide darkened appearance. Opadry AMB coatings also may comprise one or more than one pigment.

Molecules are shown by their SMILES.

For the compound `CCC[C@H](N[C@@H](C)C(=O)N1[C@H](C(=O)O)C[C@@H]2CCCC[C@@H]21)C(=O)OCC` [perindopril, 1-ethylic ester of (2S,3aS,7aS)-1-[(S)-N-[(S)-1-carboxybutyl]alanyl]hexahydro-2-indolinecarboxylic acid], the Solubility in water entry in data set [1] is recorded as “freely soluble in water”.
As for `NCCCC[C@H](N[C@@H](CCc1ccccc1)C(=O)O)C(=O)N1CCC[C@H]1C(=O)O` [lisinopril, 1-[N^2-[(S)-1-carboxy-3-phenylpropyl]-L-lysyl]-L-proline], the Solubility in water result in data set [1] was “one of the most soluble in water”.
On to `CC(=O)Oc1ccccc1C(=O)O` [acetylsalicylic acid], for which the “Degradation due to moisture” value in data set [2] is “degrades to salicylic acid due to moisture”.
